Our source for the IC50 values is patent US10683279B2, “Apoptosis signal-regulating kinase 1 inhibitors and methods of use thereof” (Enanta Pharmaceuticals, Inc., priority 2017, dated 2020).

Each structure is given as a SMILES string.

The assay addresses ASK1 (Homo sapiens (Human), UniProt Q99683). Briefly: ASK1 kinase inhibition, HTRF KinEASE Assay System (TR-FRET). It counts as biochemical. Particulars: 5 nM ASK1 kinase, 1 uM STK3 peptide substrate, 100 uM ATP, 3 hours. The procedure: The ability (IC50) of compounds to inhibit ASK1 kinase activity was determined by HTRF® KinEASE™ Assay System.
ASK1 was purchased from Thermofisher (Catalogue # PV401.1), ATP was purchased from Sigma (Catalogue # A7699), HTRF® KinEASE™ Assay System was obtained from Cisbio (Bedford, Mass). ½ Area plate was purchased from Perkin Elmer (Catalogue # #6005560). HTRF® KinEASE™-STK is a generic method for measuring serine/threonine kinase activities using a time-resolved fluorescence resonance energy transfer (TR-FRET) immunoassay. The IC50 value for each compound was determined in the presence of compound (various concentration from 0 to 10 μM) and a fixed amount of ATP and peptide substrates. The test compound, luM STK3 peptide substrate, and 5 nM of ASK1 kinase are incubated with kinase reaction buffer containing 50 mM HEPES pH 7.5, 0.01% BRIJ-35, 10 mM MgCl2, and 1 mM EGTA for 30 minutes. 100 uM ATP is added to start kinase reaction and incubated for 3 hours. The STK3-antibody labeled with Eu^3+-Cryptate and 125 nM streptavidin-XL665 are mixed in a single addition with stop reagents provided by the Cisbio kit used to stop the kinase reaction. Fluorescence is detected using an Envision Multilabeled 2014 reader from PerkinElmer. The Fluorescence is measured at 615 nm (Cryptate) and 665 nm (XL665) and a ratio of 665 nm/615 nm is calculated for each well. The resulting TR-FRET is proportional to the phosphorylation level. Staurosporine was used as the positive control. IC50 was determined by XLfit 5.3.
By using above method, the inhibition of ASK1 was tested for the compound of formula (I). IC50 ranges are as follows: A<1 nM; 1 nM<B<10 nM; 10 nM<C<100 nM; 100 nM<D
In general terms: In TR-FRET formats the signal depends on donor and acceptor labels being close together.

Sequence of ASK1 (Q99683 whole entry): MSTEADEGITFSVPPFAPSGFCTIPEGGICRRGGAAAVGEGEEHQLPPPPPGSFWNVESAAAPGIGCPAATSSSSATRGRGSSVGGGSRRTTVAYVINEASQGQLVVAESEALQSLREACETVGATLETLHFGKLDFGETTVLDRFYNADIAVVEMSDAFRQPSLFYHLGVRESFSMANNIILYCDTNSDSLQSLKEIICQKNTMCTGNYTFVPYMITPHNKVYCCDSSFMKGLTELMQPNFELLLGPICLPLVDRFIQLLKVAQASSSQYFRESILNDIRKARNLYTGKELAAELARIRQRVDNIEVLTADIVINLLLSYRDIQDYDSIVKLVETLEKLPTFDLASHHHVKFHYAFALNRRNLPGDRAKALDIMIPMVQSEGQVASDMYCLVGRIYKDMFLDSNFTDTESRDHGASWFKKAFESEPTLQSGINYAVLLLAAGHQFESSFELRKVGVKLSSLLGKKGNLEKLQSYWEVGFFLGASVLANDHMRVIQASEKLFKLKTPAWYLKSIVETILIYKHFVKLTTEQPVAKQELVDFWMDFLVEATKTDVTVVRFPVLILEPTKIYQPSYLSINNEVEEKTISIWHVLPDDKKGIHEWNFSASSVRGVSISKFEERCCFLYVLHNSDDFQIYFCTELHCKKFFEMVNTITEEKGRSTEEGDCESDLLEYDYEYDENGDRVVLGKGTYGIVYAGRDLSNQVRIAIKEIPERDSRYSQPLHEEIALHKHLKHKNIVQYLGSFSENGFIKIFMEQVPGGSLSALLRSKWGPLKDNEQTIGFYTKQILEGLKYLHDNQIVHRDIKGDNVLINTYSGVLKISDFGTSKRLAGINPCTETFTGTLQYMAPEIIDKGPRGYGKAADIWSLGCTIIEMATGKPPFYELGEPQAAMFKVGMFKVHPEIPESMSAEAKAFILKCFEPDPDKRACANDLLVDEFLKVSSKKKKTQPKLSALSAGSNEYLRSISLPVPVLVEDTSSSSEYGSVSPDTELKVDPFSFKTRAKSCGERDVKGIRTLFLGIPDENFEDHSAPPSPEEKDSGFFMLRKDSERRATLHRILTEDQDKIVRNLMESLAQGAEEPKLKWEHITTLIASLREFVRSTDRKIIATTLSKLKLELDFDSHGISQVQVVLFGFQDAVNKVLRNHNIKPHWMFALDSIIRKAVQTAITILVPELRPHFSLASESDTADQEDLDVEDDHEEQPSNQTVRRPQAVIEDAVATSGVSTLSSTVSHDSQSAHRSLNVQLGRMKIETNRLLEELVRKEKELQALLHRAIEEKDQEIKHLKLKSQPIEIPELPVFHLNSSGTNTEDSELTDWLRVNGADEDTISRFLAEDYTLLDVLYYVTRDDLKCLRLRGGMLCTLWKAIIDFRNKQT

Turning to `CC(C)n1nnnc1-c1cccc(NC(=O)c2cc(-n3cnc(C4CC4)c3)c(F)cn2)n1` [Example 39a], the IC50 (usually the concentration needed to halve the response being measured) lay in the range of 0.001 to 0.01 µM.

Turning to `CC(C)n1nnnc1-c1cccc(NC(=O)c2cc(-n3cnc(C4CC4)c3)c(N3CCCCC3)cn2)n1` [Example 40a], the IC50 was 0.01 to 0.1 µM.

On to `CC(C)n1nnnc1-c1nc(NC(=O)c2cc(-n3cnc(C4CC4)c3)c(N3CCCCC3)cn2)cs1` [Example 41a], for which the IC50 fell in the range of 0.01 to 0.1 µM.

In the case of `CC(C)n1nnnc1-c1nc(NC(=O)c2cc(-n3cnc(C4CC4)c3)c(N3CCCC3)cn2)cs1` [Example 42a], the IC50 was 0.001 to 0.01 µM.

For `CC(C)n1nnnc1-c1cccc(NC(=O)c2cc(-n3cnc(C4CC4)c3)c(N3CCCC3)cn2)n1` [Example 43a], the concentration for half-maximal inhibition (IC50) lay in the range of 0.001 to 0.01 µM.

With `CC(C)n1nnnc1-c1nc(NC(=O)c2cc(-n3cnc(C4CC4)c3)c(N3CCN(C)CC3)cn2)cs1` [Example 44a], the IC50 was in the range of 0.001 to 0.01 µM.

For `CC(C)n1nnnc1-c1nc(NC(=O)c2cc(-n3cnc(C4CC4)c3)c(N3CCOCC3)cn2)cs1` [Example 45a], the IC50 fell in the range of 0.001 to 0.01 µM.

In the case of `CC(C)n1nnnc1-c1cccc(NC(=O)c2cc(-n3cnc(C4CC4)c3)c(N3CCOCC3)cn2)n1` [Example 46a], the IC50 fell in the range of 0.001 to 0.01 µM.

`CC(C)n1nnnc1-c1cccc(NC(=O)c2cc(-n3cnc(C4CC4)c3)c(N3CCN(C)CC3)cn2)n1` [Example 47a] yielded an IC50 of 0.001 to 0.01 µM.

In turn, `Cc1cnc(C(=O)Nc2cccc(-c3nnnn3C(C)C)n2)cc1-n1cnc(C2CC2)c1` [Example 48a] came in with an IC50 of 0.01 to 0.1 µM.

For the molecule `Cc1cnc(C(=O)Nc2cccc(-c3nnnn3[C@H](C)CO)n2)cc1-n1cnc(C2CC2)c1` [Example 49a], the IC50 was 0.001 to 0.01 µM.

For `Cc1cnc(C(=O)Nc2cccc(-c3nnnn3C(C)C)n2)cc1-n1cnc(C(F)(F)F)c1` [Example 50a], the IC50 was in the range of 0.001 to 0.01 µM.

As for `Cc1cnc(C(=O)Nc2cccc(-c3nnnn3[C@H](C)CO)n2)cc1-n1cnc(C(F)(F)F)c1` [Example 51a], the half-maximal inhibitory concentration (IC50) was in the range of 0.001 to 0.01 µM.

The molecule `Cc1cnc(C(=O)Nc2cccc(-c3nnnn3C(C)C)n2)cc1-n1cnc(C(C)(C)C)c1` [Example 52a] displayed an IC50 of 0.001 to 0.01 µM.

For `Cc1cnc(C(=O)Nc2cccc(-c3nnnn3[C@H](C)CO)n2)cc1-n1cnc(C(C)(C)C)c1` [Example 53a], the IC50 lay in the range of 0.001 to 0.01 µM.

Take `CC(C)n1nnnc1-c1cccc(NC(=O)c2cc(-n3cnc(C4CC4)c3)c(C(F)F)cn2)n1` [Example 54a]: the IC50 fell in the range of 0.001 to 0.01 µM.

With `C[C@H](CO)n1nnnc1-c1cccc(NC(=O)c2cc(-n3cnc(C4CC4)c3)c(C(F)F)cn2)n1` [Example 55a], the IC50 fell in the range of 0.001 to 0.01 µM.

Turning to `CC(C)n1nnnc1-c1nc(NC(=O)c2cc(-n3cnc(C4CC4)c3)c(C(F)F)cn2)cs1` [Example 56a], the IC50 lay in the range of 0.001 to 0.01 µM.

For `CC(C)n1nnnc1-c1cccc(NC(=O)c2cc(-n3cnc(C4CC4)c3)c(C(F)(F)F)cn2)n1` [Example 57a], the concentration for half-maximal inhibition (IC50) was 0.001 to 0.01 µM.

The molecule `C[C@H](CO)n1nnnc1-c1cccc(NC(=O)c2cc(-n3cnc(C4CC4)c3)c(C(F)(F)F)cn2)n1` [Example 58a] displayed an IC50 of 0.001 to 0.01 µM.

`CC(C)n1nnnc1-c1nc(NC(=O)c2cc(-n3cnc(C4CC4)c3)c(C(F)(F)F)cn2)cs1` [Example 59a]: the IC50 was 0.001 to 0.01 µM.

For `COc1cc(C)c(-n2cnc(C3CC3)c2)cc1C(=O)Nc1cccc(-c2nnnn2C(C)C)n1` [Example 60a], the IC50 lay within 0.001 to 0.01 µM.

For the molecule `COc1cc(C)c(-n2cnc(C3CC3)c2)cc1C(=O)Nc1cccc(-c2nnnn2[C@H](C)CO)n1` [Example 61a], the IC50 fell in the range of 0.001 to 0.01 µM.
